The source of these data is BindingDB's records for doi:10.1080/14756360802187612 (Ben-Gurion University of The Negev, 2009).

Counter-ions that a name gives are not always drawn.

For the assay, the target named is Tryptophanase (Escherichia coli (strain K12), UniProt P0A853). Nature of the assay: Enzyme Inhibition Assay. To be noted: pH 7.8; 25 °C. The text has this: Enzyme inhibition assay using tryptophanase.
Chain of Tryptophanase (P0A853 whole entry): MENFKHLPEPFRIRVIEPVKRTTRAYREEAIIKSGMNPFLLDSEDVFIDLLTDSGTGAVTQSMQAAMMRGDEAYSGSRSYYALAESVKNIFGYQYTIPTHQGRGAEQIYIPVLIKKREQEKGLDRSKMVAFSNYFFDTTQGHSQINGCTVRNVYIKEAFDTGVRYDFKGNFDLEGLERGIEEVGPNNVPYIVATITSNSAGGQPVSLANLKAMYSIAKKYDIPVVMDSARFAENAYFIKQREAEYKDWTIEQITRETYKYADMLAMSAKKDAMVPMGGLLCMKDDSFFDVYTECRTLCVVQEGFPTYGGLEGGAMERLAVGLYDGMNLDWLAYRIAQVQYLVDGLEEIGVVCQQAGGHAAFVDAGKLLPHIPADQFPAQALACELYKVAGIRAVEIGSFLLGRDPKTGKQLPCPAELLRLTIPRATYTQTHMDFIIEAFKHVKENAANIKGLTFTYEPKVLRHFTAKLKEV

As for `CC(=O)NC(Cc1c[nH]c2ccccc12)C(=O)O` (configuration not stated) [N-acetyl tryptophan], affinity was put at a Ki of 48 µM.

`CCOC(=O)C(N)Cc1c[nH]c2ccccc12` [L-tryptophan-ethylester (p-toluene sulfuric acid salt)] yielded a Ki of 52 µM.
